Like-named read-outs stand apart in the source and are kept apart here.
Experiments:
[1] = tested on: P. vivax Brazilian field isolates; test: Ex vivo drug susceptibility of Brazilian field isolates (P. vivax); type: cell-based; conditions: Plasmodium vivax
Procedure: Compounds were assayed on ten P. vivax isolates and seven P. falciparum Brazilian isolates collected from mono-infected patients, who had signed a written informed consent form to participate in the study, using previously described methods. The initial parasitemia ranged from 2,100–8,000 parasites/μL for P. vivax and 3,500–9,000 parasites/μL for P. falciparum isolates. Artesunate and chloroquine were assayed in parallel as standard compounds. The analyses included only the isolates that were incubated for ≥ 40 h with the compounds.

[2] = tested on: P. falciparum liver stage schizont (NF175); test: Liver stage schizont assay in primary human hepatocytes (NF175); type: cell-based; conditions: Plasmodium falciparum, Hepatocyte, 96 h, four days
Procedure: Activity against liver stage parasites was performed using a modification of published procedures. Briefly, cryopreserved human primary hepatocytes (NF175: H1500.H15B+ Lot No. HC0-6, TebuBio or NF135: F00995-P Lot No. IRZ, BioIVT) were thawed and seeded at 18,000 cells per well in collagen-coated 384-well microtiter plates in medium containing 10% heat inactivated fetal bovine serum (hiFBS). Cells were cultured at 37°C in 5% CO2. For NF175, medium was replaced by fresh medium containing 10% hiFBS, 5 h post plating. For NF135, medium was replaced by medium containing 0.2% BSA, 24 h post plating. 48 h post plating, salivary glands from Plasmodium-NF175 or NF135-infected Anopheles stephensi mosquitoes were dissected, added to the hepatocytes (10,000 per well/ NF175; or 12,500 per well/ NF135) and allowed to infect for 3 hours. Sporozoites were then aspirated, and compounds diluted in medium containing 10% hiFBS or 0.2% BSA, were added to the hepatocytes. Medium containing 10% hiFBS or 0.2% BSA and compounds was refreshed daily for four days. […] Cells were imaged on a PicoExpress high content imager, and images were analysed automatically using CellReporterXpress software. Data were analysed by logistic regression using a four-parameter (Hill equation) model and a least-squares method to find the best fit.

[3] = Solubility; type: physicochemical
[4] = Caco-2 permeability; type: in vitro ADME; conditions: human
Procedure: Permeability studies were performed as described previously. In brief, Caco-2 cells were cultured for 21–25 days to differentiate them into enterocyte-like cells. The transepithelial electrical resistance (TEER) was measured to ensure tight junction formation and cells with TEER value more than 250 ohms.cm^2 were used in the study. On the day of the transport study, cells were washed with warm HBSS buffer and equilibrated with buffer for 60 min. ML471 was added at a concentration of 5 μM (containing 50 μM Lucifer Yellow) into a 24 Transwell cell plate (apical 210 μL and basal 1000 μL) and buffer was added in the receiver side. Cells were incubated at 37°C for 60 min and 120 μL aliquots were taken from the receiver side after 30 and 60 min. Samples were mixed with 100 nM carbutamide in acetonitrile (ACN) containing 0.1% formic acid (internal standard). Samples were centrifuged at 2,056 x g for 10 min and the supernatant was collected and analyzed for quantification of the test article by LC-MS [49].

[5] = tested on: CAM 3.II Rev parasites, trophozoite and schizont stages; test: Pulsed exposure viability of trophozoite and schizont stages, flow cytometry of Syto-61-labelled parasites; type: cell-based, Plasmodium falciparum; conditions: for LD50 Troph: trophozoite
[6] = tested on: stage V NF54 strain male and female gametocytes; design: method as in ref [1] Xie et al., Science 2022; conditions: 48 h, ref [1] Xie et al., Science 2022, cited from earlier work

Row | Structure (SMILES) | EC50 ([1]; range over n = 10 isolates, read-out: EC50 range, P. vivax Brazilian field isolates) [nM] | EC50 ([1]; read-out: Median EC50, P. vivax Brazilian field isolates) [nM] | IC50 [2] [nM] | solubility [3] [µM] | Papp A→B at 60 min, 5 μM ([4]; 5 μM, 60 min, second figure of the cell, read-out: Caco2 Papp (A to B)) [×10⁻⁶ cm/s] | Papp B→A at 60 min, 5 μM ([4]; 5 μM, 60 min, third figure of the cell, read-out: Caco2 Papp (B to A)) [×10⁻⁶ cm/s] | efflux ratio at 60 min, 5 μM ([4]; equals B to A / A to B, read-out: Caco2, first figure of the cell, not given) | LD50 Schizont ([5]; 30 h continuous) [nM] | LD50 Schizont ([5]; drug pulse time 3 h) [nM] | LD50 Schizont ([5]; drug pulse time 6 h) [nM] | LD50 Schizont ([5]; drug pulse time 9 h) [nM] | fold lower sensitivity of trophozoite stage compared with schizont stage ([5]; short pulses of 3 h or 6 h) [fold] | LD50 Troph ([5]; 48 h continuous) [nM] | LD50 Troph ([5]; drug pulse time 3 h) [nM] | LD50 Troph ([5]; drug pulse time 6 h) [nM] | LD50 Troph ([5]; drug pulse time 9 h) [nM] | LD50 Troph ([5]; drug pulse time 24 h) [nM] | IC50 ([6]; female, read-out: Dual gamete formation assay (female) IC50(48h)) [nM] | IC50 ([6]; male, read-out: Dual gamete formation assay (male) IC50(48h)) [nM]
1 | CC(C)c1nn([C@@H]2O[C@H](COS(N)(=O)=O)[C@@H](O)[C@H]2O)c2ncnc(N)c12 [ML471, ((2R,3S,4R,5R)-5-(4-amino-3-isopropyl-1H-pyrazolo[3,4-d]pyrimidin-1-yl)-3,4-dihydroxytetrahydrofuran-2-yl)methyl sulfamate] | 1.2 to 62 | 8 | 2.8 | > 100 | 0.17 | 1.3 | 7.6 |  |  |  |  |  |  |  |  |  |  |  | 
2 | Nc1ncnc2c1c(OC(F)F)nn2[C@@H]1O[C@H](COS(N)(=O)=O)[C@@H](O)[C@H]1O [ML901] |  |  |  |  |  |  |  | 8.5 ± 0.7 | 88 ± 1 | 36 ± 6 | 21 ± 12 | 10 to 20 | 3.9 ± 0.8 | 1700 ± 460 | 680 ± 48 | 290 ± 150 | 4.0 ± 0.0 | 4700 | 130 ± 10

Source: publication PMC11671014 (PLOS Pathogens, 2024)
